Data as given in patent publication US10258602B2 (Ocera Therapeutics, Inc., priority 2007, dated 2019).

What was measured:
CYP2A6 = molecular target: T1, CYP2A6 (Homo sapiens, UniProt P11509); experiment: Cytochrome P450 inhibition, CYP2A6; type: in vitro ADME; settings: read-out: IC50 2A6
T1 construct: purchased BD Gentest, Becton-Dickinson (Supersomes); host or cells: insect cells
T1 sequence (P11509 1-494): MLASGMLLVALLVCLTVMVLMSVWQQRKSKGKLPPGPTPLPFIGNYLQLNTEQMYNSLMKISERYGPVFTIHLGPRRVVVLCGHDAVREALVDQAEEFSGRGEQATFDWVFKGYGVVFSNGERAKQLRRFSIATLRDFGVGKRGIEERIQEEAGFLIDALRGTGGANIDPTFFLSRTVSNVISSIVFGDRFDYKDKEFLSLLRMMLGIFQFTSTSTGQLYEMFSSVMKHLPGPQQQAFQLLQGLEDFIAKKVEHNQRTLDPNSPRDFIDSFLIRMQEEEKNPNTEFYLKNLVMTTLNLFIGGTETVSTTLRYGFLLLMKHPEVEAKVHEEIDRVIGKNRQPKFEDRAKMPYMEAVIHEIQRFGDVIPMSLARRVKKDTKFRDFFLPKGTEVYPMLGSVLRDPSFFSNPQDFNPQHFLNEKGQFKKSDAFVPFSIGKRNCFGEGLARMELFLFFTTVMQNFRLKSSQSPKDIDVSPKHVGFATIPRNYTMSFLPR
Text: K. Assay for Cytochrome P450 Inhibition
Cytochrome P450 enzymes are implicated in the phase I metabolism of drugs. The majority of drug-drug interactions are metabolism-based and, moreover, these interactions typically involve inhibition of cytochrome P450s. Six CYP450 enzymes (CYP1A2, CYP2C8, CYP2C9, CYP2C19, CYP2D6 and CYP3A4) appear to be commonly responsible for the metabolism of most drugs and the associated drug-drug interactions. Assays to determine the binding of compounds of the invention to the various metabolically important isoforms of cytochrome P450 metabolizing enzymes are commercially available, for example NoAb BioDiscoveries (Mississaugua, ON, Canada) and Absorption Systems (Exton, Pa., USA). As well, a number of appropriate methods have been described or reviewed in the literature. (White, R. E. Ann. Rev. Pharmacol. Toxicol. 2000, 40, 133-157; Li, A. P. Drug. Disc. Today 2001, 6, 357-366; Turpeinen, M.; Korhonen, L. E. Tolonen, A.; et al. Eur. J. Pharm. Sci, 2006, 29, 130-138.)
The key aspects of the experimental method were as follows: • 1. […] Assays monitored, via fluorescence detection, the formation of a fluorescent metabolite following incubation of the microsomes with a specific CYP substrate. • 3. Compounds of the present invention were tested in duplicate samples at eight test concentrations using 3-fold serial dilutions (concentration range of 0.0457 to 100 μM). • 4. For each CYP-450 enzyme, a specific inhibitor was tested in duplicate at eight concentrations as a positive control. • 5. The concentration of the inhibitor or test compound that inhibited metabolite formation by 50% (IC50) was calculated by non-linear regression analysis of the % inhibition vs. log concentration (M) curve.

Caco-2 cell layer = experiment: Caco-2 permeability; settings: for Papp A to B: Caco-2, apical to basolateral; for Papp A to B / Papp B to A: 10 μM, 60 min, 37° C.; for Papp B to A: Caco-2, basolateral to apical; for BtoA/AtoB: Caco-2 ratio of Papp B to A over A to B
Experimental: L. Determination of Caco-2 Permeability
Fully differentiated cell monolayers can be used to assess the membrane transport properties of novel compounds.
Permeability across the Caco-2 cell layer was determined by growing the cells on a membrane placed between two (donor and acceptor) chambers. […] Permeability in this direction represents intestinal absorption. Permeability may also be determined from the basolateral to the apical side of the Caco-2 cell. A higher apical to basolateral Papp, compared to the basolateral to apical Papp, is indicative of carrier-mediated transport.
Permeability (10 μM) for compounds of the invention in the apical to basolateral and basolateral to apical direction were tested in duplicate. Samples will be collected from the donor and acceptor chambers at the beginning (0 min) and following 60 min of incubation at 37° C. and stored frozen at −70° C. until bioanalysis. Samples for each test compound generated from the Caco-2 permeability assay were further analyzed by LC-MS-MS. The permeability of [^3H]-mannitol and [^3H]-propranolol were determined in parallel as controls.
The permeability coefficient (Papp) of each compound and radiolabeled standard was determined using the following equation:
where dQ/dT represents the permeability rate, Ci denotes the initial concentration in the donor compartment, and A represents the surface area of the filter. Ci is determined from the mean concentration of duplicate samples taken prior to addition to the donor compartment. Permeability rates were calculated by plotting the cumulative amount of compound measured in the acceptor compartment over time and determining the slope of the line by linear regression analysis. The duplicate and mean apical to basolateral and basolateral to apical Papp's were reported for each compound and standard.

[1] = molecular target: GHS-R1a receptor (human ghrelin receptor) (Homo sapiens, UniProt Q92847); experiment: Aequorin functional assay (ghrelin receptor), standard method B; type: cell-based
Sequence of GHS-R1a receptor (human ghrelin receptor) (Q92847 whole entry): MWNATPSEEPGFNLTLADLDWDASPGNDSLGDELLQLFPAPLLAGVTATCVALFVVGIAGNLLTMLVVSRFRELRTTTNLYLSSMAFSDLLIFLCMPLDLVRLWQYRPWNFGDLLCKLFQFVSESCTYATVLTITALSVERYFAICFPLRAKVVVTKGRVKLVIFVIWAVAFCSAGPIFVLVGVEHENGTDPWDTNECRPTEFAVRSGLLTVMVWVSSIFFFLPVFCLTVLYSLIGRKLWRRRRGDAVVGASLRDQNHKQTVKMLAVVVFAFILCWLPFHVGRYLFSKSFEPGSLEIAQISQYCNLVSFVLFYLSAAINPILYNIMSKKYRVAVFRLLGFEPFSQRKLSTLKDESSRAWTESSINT
Text: B. Aequorin Functional Assay (Ghrelin Receptor)
See also U.S. patent application Ser. Nos. 11/149,512 and 11/149,731. (LePoul, E.; et al. J. Biomol. Screen. 2002, 7, 57-65; Bednarek, M. A.; et al. J. Med. Chem. 2000, 43, 4370-4376; Palucki, B. L.; et al. Bioorg. Med. Chem. Lett. 2001, 11, 1955-1957.) Functional activity at the gherlin receptor for representative compounds of the present invention is presented in the Examples.

[2] = Plasma protein binding, human plasma (equilibrium dialysis); type: in vitro ADME; settings: test concentration 5 μg/mL
In short: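 Human plasma incubated with test article at several concentrations for 60 min at 37° C. Bound and unbound fractions separated by equilibrium dialysis; unbound concentration quantified by LC-MS or LC-MS-MS.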

[3] = Plasma protein binding, rat plasma; type: in vitro ADME; settings: test concentration 5 μg/mL
hGHS-R1a = molecular target: T2, hGHS-R1a (Homo sapiens, UniProt Q92847); experiment: Activation-desensitization profile, Ca2+ flux in HEK293 cells stably expressing hGHS-R1a; type: cell-based; settings: higher positive = less desensitization potential
T2 construct: expressed in transfected cells
T2 sequence (Q92847 whole entry): as above
Experimental: M. Activation-Desensitization Profile
It is well-known that agonists of G-protein coupled receptors can induce desensitization or tachyphylaxis, thereby limiting the potential of agents acting at the receptor as therapeutics for chronic use.
• 1. […] Agonist-induced Ca^+2 fluxes were measured after loading with Ca^+2 indicator Fluo-4-AM. • 3. […] Results

[4] = system: rat stomach fundus strips; experiment: tissue or blood; settings: read-out: EC50 values for contractility
Experimental: Fundus strips (approximately 0.4×1 cm) were cut from the stomach of adult male Wistar rats parallel to the circular muscle fibers. They were placed between two platinum ring electrodes, 1 cm apart (Radnoti, ADInstruments, USA) in 10 ml tissue baths containing Krebs solution bubbled with 5% CO2 in O2 and maintained at 37° C. Tissues were suspended under 1.5 g resting tension. Changes of tension were measured isometrically with force transducers and recorded with a PowerLab 8/30 data acquisition system (ADInstruments, USA). Tissues were allowed to equilibrate for 60 min during which time bath solutions were changed every 15 min.
EFS was achieved by applying 0.5 ms pulses, 5 Hz frequency, at a maximally effective voltage of 70 V. EFS was applied for 30 sec at 3 min intervals for a 30 min initial period. This initial period was separated by a 5 min interval with wash out of the bath solution. Then, a second period of stimulation was started. […] Responses to the agents were measured and expressed as % of the mean of three or four pre-drug responses to EFS. All compounds were dissolved at 1 mM in distilled water or MeOH, as stock solutions.

| SMILES | IC50 (CYP2A6) | Papp A to B (Caco-2 cell layer) | Papp B to A (Caco-2 cell layer) | BtoA/AtoB (Caco-2 cell layer) | other results |
| --- | --- | --- | --- | --- | --- |
| C[C@@H]1C(=O)N[C@H](Cc2ccc(O)cc2)C(=O)NCCCc2cccc3c2O[C@H](CC3)CN[C@@H](C2CC2)C(=O)N1C [Compound 803] | > 100 µM | 12.1 cm/sec × 10^−6 | 67.3 cm/sec × 10^−6 | 5.59 |  |
| CC(C)C[C@H]1NC(=O)[C@@H](C)N(C)C(=O)[C@H](C2CC2)NCCOc2cc(F)ccc2CC[C@H](C)NC1=O [Compound 822] | > 100 µM |  |  |  |  |
| CC1CNC(C2CC2)C(=O)N(C)C(C)C(=O)NC(Cc2ccc(O)cc2)C(=O)NCCCC2CCCCC2O1 (mixture of isomers) [Compound 826] | > 100 µM | 11.2 cm/sec × 10^−6 | 46.9 cm/sec × 10^−6 | 4.18 | Δ(activity-desensitization) (pEC50 − pDC50) (hGHS-R1a): 1.90 |
| C[C@@H]1C(=O)N[C@H](Cc2ccc(O)cc2)C(=O)NCCCc2ccc(F)cc2OCCN[C@@H](C2CC2)C(=O)N1C [Compound 809] | > 100 µM |  |  |  |  |
| CC(C)C[C@H]1NC(=O)[C@@H](C)N(C)C(=O)[C@H](C2CC2)NCCOc2cc(F)ccc2CCCNC1=O [Compound 810] | > 100 µM |  |  |  |  |
| CC1NC(C2CC2)C(=O)N(C)C(C)C(=O)NC(Cc2ccc(O)cc2)C(=O)NCCCc2ccccc2OC1C (stereo not drawn) [Compound 820] | > 100 µM |  |  |  |  |

Continued, in another order:

| IC50 (CYP2A6) | SMILES | Papp A to B (Caco-2 cell layer) | Papp B to A (Caco-2 cell layer) | BtoA/AtoB (Caco-2 cell layer) | other results |
| --- | --- | --- | --- | --- | --- |
| > 100 µM | CC(C)CC1NC(=O)C(C)N(C)C(=O)C(C2CC2)NCC(C)OC2CCCCC2CCCNC1=O (mixture of isomers) [Compound 825] | 113 cm/sec × 10^−6 | 123 cm/sec × 10^−6 | 1.08 |  |
| > 100 µM | CC(C)C[C@H]1NC(=O)[C@@H](C)N(C)C(=O)[C@H](C2CC2)NC[C@@H](C)Oc2ccccc2CC[C@H](C)NC1=O [Compound 807] |  |  |  | EC50 [1]: ≤ 0.05 µM; fraction unbound at 60 min, 5 μg/mL [2]: 0.007; fraction unbound at 60 min, 5 μg/mL [3]: 0.16; Δ(activity-desensitization) (pEC50 − pDC50) (hGHS-R1a): 3.08; EC50 [4]: 0.15 µM |
| > 100 µM | CC(C)CC1NC(=O)C(C)N(C)C(=O)C(C2CCCCC2)NCC(C)OC2CCCCC2CCCNC1=O (mixture of isomers) [Compound 828] |  |  |  |  |
